Consider 33 molecules from ChEMBL document CHEMBL2028040, “Malaria Box”.

As usually defined, the inhibition is the relative decrease from the control value, in per cent. A lower inhibition goes with little suppression. One may read the IC50 as the concentration that gives 50% inhibition.

The subject of one data set is Plasmodium falciparum. Briefly: MMV: Inhibition of Plasmodium falciparum 3D7 at 5uM compound concentration. The format is functional.
A further data set deals with Trypanosoma cruzi. In words: MMV: Inhibition of Trypanosoma cruzi (Tulahuen C4 LacZ) (Chagas in vitro). Format: functional, organism-based.
Data set [1] relates to Trypanosoma brucei brucei. Briefly: MMV: Inhibition of Trypanosoma brucei brucei (Squib 427) (HAT in vitro). The format is functional, organism-based.
Data set [2] deals with Trypanosoma brucei rhodesiense. Briefly: MMV: Inhibition of Trypanosoma brucei rhodesiense (STIB 900) (HAT in vitro). The format is functional, organism-based.
The next data set relates to Leishmania infantum. In words: MMV: Inhibition of Leishmania infantum (MHOM/MA/BE/67) in vitro. Format: functional, organism-based.
A short description of data set [3]: MMV: Cytotoxicity against human fibroblasts (MRC-5) cells. Conditions: MRC-5 cells (human fibroblasts).

In turn, `COCCn1c(C)nc2ccccc2c1=O` registered an inhibition at 5 µM in the data set on Plasmodium falciparum of 59%. Further, the IC50 (with Trypanosoma cruzi; in data set [1]; in data set [2]; in the data set on Leishmania infantum; in data set [3]) was greater than 32 µM throughout.
Turning to `Oc1ccc2ccccc2c1CNc1nc2ccccc2[nH]1`, at 5 µM the inhibition in the data set on Plasmodium falciparum was 83%. Also, the IC50 with Trypanosoma cruzi was greater than 32 µM; in data set [1], 16.1 µM; in data set [2] it was 8.65 µM; in the data set on Leishmania infantum, greater than 32 µM; in data set [3], greater than 32 µM.
In the case of `O=C(c1ccccc1F)N(Cc1ccc(Cl)cc1)c1ccccn1`, at 5 µM the inhibition with Plasmodium falciparum was 59%. Also, the IC50 (in the data set on Trypanosoma cruzi; in data set [1]; in data set [2]; in the data set with Leishmania infantum; in data set [3]) was greater than 32 µM throughout.
Consider `OC1CCCCC1C1(NC(=S)Nc2ccccc2)CCCCC1` (stereo not drawn), for which the inhibition at 5 µM with Plasmodium falciparum came to 59%. In addition, the IC50 in the data set on Trypanosoma cruzi is 12.2 µM; in data set [1], 12.4 µM; in data set [2], 4.12 µM; with Leishmania infantum, 4.32 µM; in data set [3], greater than 32 µM.
`O=C(Nc1ccc(Cl)cc1C(=O)Nc1ccncc1)c1ccc(Cl)cc1Cl` showed an inhibition at 5 µM with Plasmodium falciparum of 94%. For the same molecule, the IC50 (in the data set on Trypanosoma cruzi; in data set [1]; in data set [2]; in the data set with Leishmania infantum; in data set [3]) was greater than 32 µM throughout.
Consider `O=C(Nc1ccc(Br)cc1)Nc1cccc(Cl)c1`, for which 5 µM produced 94% inhibition in the data set on Plasmodium falciparum. In addition, the IC50 is 5.21 µM in the data set on Trypanosoma cruzi; 4 µM in data set [1]; 3.09 µM in data set [2]; 10.2 µM in the data set with Leishmania infantum; greater than 32 µM in data set [3].
Consider `CCN(CC)CCCNc1nc(-c2ccc(Cl)cc2)nc2ccccc12`, for which the inhibition at 5 µM in the data set with Plasmodium falciparum is 92%. Moreover, the IC50 stood at 8.56 µM with Trypanosoma cruzi; 0.271 µM in data set [1]; 0.25 µM in data set [2]; 4 µM in the data set on Leishmania infantum; 15.8 µM in data set [3].
Turning to `COc1ccc(C)c2sc(N(Cc3cccnc3)C(=O)c3ccc(C#N)cc3)nc12`, 5 µM produced 91% inhibition in the data set with Plasmodium falciparum. Besides, the IC50 with Trypanosoma cruzi is 2.32 µM; in data set [1] it was 14.6 µM; in data set [2] it was 16 µM; in the data set with Leishmania infantum, greater than 32 µM; in data set [3], greater than 32 µM.
In the data set with Plasmodium falciparum, `CCN(CC)CCCNc1ccnc2cc3ccccc3cc12` returned an inhibition at 5 µM of 90%. In addition, the half-maximal inhibitory concentration (IC50) in the data set on Trypanosoma cruzi is greater than 32 µM; in data set [1], 16.5 µM; in data set [2] it was 16.2 µM; in the data set on Leishmania infantum, greater than 32 µM; in data set [3] it was greater than 32 µM.
`COc1ccc(C(=O)Nc2ccc(Cl)cc2C(=O)Nc2ccncc2)cc1` displayed an inhibition at 5 µM with Plasmodium falciparum of 93%. Besides, the IC50 (in the data set with Trypanosoma cruzi; in data set [1]; in data set [2]; in the data set with Leishmania infantum; in data set [3]) was greater than 32 µM in each case.
Molecule `COc1ccc(C(O)(CCC(C)C)C(CN2CCOCC2)c2ccc(Cl)cc2)cc1` (stereo not drawn) had an inhibition at 5 µM with Plasmodium falciparum of 97%. Moreover, the IC50 in the data set on Trypanosoma cruzi was found to be 4.26 µM; in data set [1], 3.85 µM; in data set [2], 4 µM; with Leishmania infantum it was 4.76 µM; in data set [3], 10.8 µM.
`O=c1nc(C=Cc2ccc(Br)cc2)oc2ccccc12`: 5 µM produced 94% inhibition in the data set with Plasmodium falciparum. Moreover, the IC50 came to 4.17 µM in the data set on Trypanosoma cruzi; 16 µM in data set [1]; 16.1 µM in data set [2]; 4.06 µM in the data set on Leishmania infantum; 4 µM in data set [3].
As to `COc1ccc(C(=O)C(CCC(CNC(C)(C)C)C(=O)c2ccc(OC)cc2)CNC(C)(C)C)cc1` (stereo not drawn), the inhibition at 5 µM in the data set with Plasmodium falciparum came to 85%. In addition, the IC50 with Trypanosoma cruzi is 4.15 µM; in data set [1], 1.02 µM; in data set [2], 1.65 µM; with Leishmania infantum, 0.846 µM; in data set [3], 10.3 µM.
For the molecule `O=C(CSc1ccc2nnc(-c3cccc(F)c3)n2n1)Nc1ccc2c(c1)OCO2`, the inhibition at 5 µM in the data set with Plasmodium falciparum was found to be 92%. For the same molecule, the IC50 (in the data set on Trypanosoma cruzi; in data set [1]; in data set [2]; with Leishmania infantum; in data set [3]) was greater than 32 µM each time.
The molecule `CCC(=O)Nc1nnc(Cc2ccc(OC)c(OC)c2)s1` returned an inhibition at 5 µM with Plasmodium falciparum of 47%. Also, the IC50 (in the data set with Trypanosoma cruzi; in data set [1]; in data set [2]; in the data set on Leishmania infantum; in data set [3]) was greater than 32 µM in each case.
Consider `COc1ccc(-c2cc3c(nn2)-c2ccccc2C3=O)cc1`, for which, in the data set on Plasmodium falciparum, 5 µM produced 97% inhibition. For the same molecule, the IC50 (with Trypanosoma cruzi; in data set [1]; in data set [2]; in the data set with Leishmania infantum; in data set [3]) was greater than 32 µM throughout.
The molecule `CN(C)c1ccc(-c2nc3cc(N)ccc3[nH]2)cc1` registered an inhibition at 5 µM in the data set on Plasmodium falciparum of 64%. Besides, the IC50 in the data set with Trypanosoma cruzi is 17.4 µM; in data set [1], 19.6 µM; in data set [2] it was 18 µM; in the data set with Leishmania infantum, greater than 32 µM; in data set [3], greater than 32 µM.
In the data set on Plasmodium falciparum, `COc1ccccc1CNC(=O)C1c2ccccc2C(=O)N(CC(C)C)C1c1cccs1` (stereo not drawn) displayed an inhibition at 5 µM of 97%. Besides, the IC50 with Trypanosoma cruzi is greater than 32 µM; in data set [1], greater than 32 µM; in data set [2] it was 19.7 µM; with Leishmania infantum it was greater than 32 µM; in data set [3], greater than 32 µM.
As to `O=C(Nc1ccc(Cl)cc1)N1CCN(c2ccc3nncn3n2)CC1`, in the data set on Plasmodium falciparum, the inhibition at 5 µM worked out at 62%. Also, the IC50 (in the data set with Trypanosoma cruzi; in data set [1]; in data set [2]; in the data set with Leishmania infantum; in data set [3]) was greater than 32 µM in each case.
Regarding `N=c1c2ccccc2nnn1-c1cccc(C(F)(F)F)c1`, the inhibition at 5 µM in the data set with Plasmodium falciparum turned out to be 83%. Moreover, the IC50 (with Trypanosoma cruzi; in data set [1]; in data set [2]; with Leishmania infantum; in data set [3]) was greater than 32 µM each time.
In the data set on Plasmodium falciparum, `COCCNC(=O)c1ccc(OC2CCN(Cc3ccc(F)c(F)c3)CC2)c(Cl)c1` gave an inhibition at 5 µM of 91%. The IC50 in the data set on Trypanosoma cruzi was greater than 32 µM; in data set [1], greater than 32 µM; in data set [2], 16.1 µM; in the data set on Leishmania infantum, greater than 32 µM; in data set [3] it was greater than 32 µM.
`CC(C)(C)C(=O)Nc1ccc(C(=O)Nc2cccc(-c3nc4ccccc4[nH]3)c2)cc1`: the inhibition at 5 µM in the data set on Plasmodium falciparum turned out to be 91%. The IC50 in the data set with Trypanosoma cruzi is 11.8 µM; in data set [1], 16.4 µM; in data set [2] it was 3.14 µM; in the data set on Leishmania infantum, greater than 32 µM; in data set [3] it was 17.9 µM.
In the data set on Plasmodium falciparum, `CN(C)c1ccc(N=Cc2ccc(N3CCOCC3)cc2)cc1` gave an inhibition at 5 µM of 96%. Moreover, the IC50 in the data set with Trypanosoma cruzi was 17 µM; in data set [1], 13.3 µM; in data set [2] it was 3.51 µM; in the data set with Leishmania infantum, 10.1 µM; in data set [3] it was greater than 32 µM.
On to `CCOc1ccc(-c2nc(NC(=O)c3cccc(S(C)(=O)=O)c3)sc2C)cc1`, for which the inhibition at 5 µM with Plasmodium falciparum was determined as 95%. In addition, the half-inhibitory concentration (IC50) is greater than 32 µM with Trypanosoma cruzi; 14.9 µM in data set [1]; 15.3 µM in data set [2]; greater than 32 µM in the data set on Leishmania infantum; greater than 32 µM in data set [3].
Take `Oc1c(CN2CCN(c3ccccc3F)CC2)cc(Br)c2cccnc12`: in the data set on Plasmodium falciparum, the inhibition at 5 µM is 91%. Further, the IC50 in the data set on Trypanosoma cruzi was 0.963 µM; in data set [1], 1.15 µM; in data set [2] it was 1.05 µM; with Leishmania infantum, greater than 32 µM; in data set [3], 5.58 µM.
`Oc1ccc(Cl)cc1CNc1nc2ccccc2[nH]1`: the inhibition at 5 µM in the data set with Plasmodium falciparum came to 95%. Also, the IC50 is 16.1 µM in the data set with Trypanosoma cruzi; 15.6 µM in data set [1]; 16 µM in data set [2]; 16 µM in the data set with Leishmania infantum; 15.9 µM in data set [3].
On to `COc1ccc(-c2cn3c(C(=O)Nc4ccccc4Cl)c(-c4ccccc4)c4c3n2CCCC4)cc1`, for which 5 µM produced 80% inhibition in the data set on Plasmodium falciparum. For the same molecule, the IC50 was 15 µM with Trypanosoma cruzi; 16.5 µM in data set [1]; 5 µM in data set [2]; 16 µM with Leishmania infantum; greater than 32 µM in data set [3].
`O=C1CC(O)(C(F)(F)C(F)(F)F)Oc2ccccc21` (stereo not drawn) yielded an inhibition at 5 µM with Plasmodium falciparum of 95%. The IC50 in the data set on Trypanosoma cruzi was 16.3 µM; in data set [1] it was greater than 32 µM; in data set [2] it was 30.3 µM; in the data set with Leishmania infantum it was greater than 32 µM; in data set [3], 18.1 µM.
As to `CCN(CC)c1ccc(NC(=O)c2cccs2)cc1`, in the data set on Plasmodium falciparum, the inhibition at 5 µM was found to be 88%. Further, the IC50 (in the data set with Trypanosoma cruzi; in data set [1]; in data set [2]; in the data set with Leishmania infantum; in data set [3]) was greater than 32 µM throughout.
With `FC(F)(F)c1cccc(Nc2nc(-c3ccccc3)nc3ncccc23)c1`, 5 µM produced 74% inhibition in the data set on Plasmodium falciparum. The IC50 in the data set with Trypanosoma cruzi was 15.3 µM; in data set [1], greater than 32 µM; in data set [2], 25.3 µM; in the data set on Leishmania infantum, greater than 32 µM; in data set [3] it was greater than 32 µM.
Molecule `CC(C)(C)c1ccc(C(=O)Nc2nc3ccccc3s2)cc1` yielded an inhibition at 5 µM in the data set on Plasmodium falciparum of 81%. For the same molecule, the IC50 (in the data set on Trypanosoma cruzi; in data set [1]; in data set [2]; in the data set with Leishmania infantum; in data set [3]) was greater than 32 µM each time.
Take `CCCCCCC(O)(c1ccc(F)cc1)C(CN1CCOCC1)c1ccccc1` (stereo not drawn): in the data set on Plasmodium falciparum, the inhibition at 5 µM was 93%. Also, the IC50 in the data set with Trypanosoma cruzi was 4.78 µM; in data set [1], 16.2 µM; in data set [2], 12.5 µM; in the data set with Leishmania infantum, 4.32 µM; in data set [3], greater than 32 µM.
In the case of `CC(C)(C)c1ccc(C(=O)Nc2c3c(nn2-c2cccc(Cl)c2)CSC3)cc1`, at 5 µM the inhibition in the data set on Plasmodium falciparum was 93%. The IC50 is greater than 32 µM in the data set with Trypanosoma cruzi; 16.1 µM in data set [1]; greater than 32 µM in data set [2]; greater than 32 µM with Leishmania infantum; greater than 32 µM in data set [3].
